# Experimental data: the METLIN SMRT retention time set (Domingo-Almenara et al. 2019)
# Test: gradient 5% acetonitrile 3 min, to 50% in 2 min, to 85% in 15 min, held 3 min, 100 µL/min
# Settings: column: Zorbax Extend-C18 2.1 x 50 mm; eluents: water / acetonitrile, 0.1% formic acid
# Outline: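 Retention time was recorded from adduct peaks, which were picked computationally and each inspected manually. Pure standards ran in mixtures of ~100 molecules on HPLC coupled to a quadrupole time-of-flight mass spectrometer, in positive and negative ionization mode, through a Zorbax Extend-C18 column (2.1 × 50 mm, 1.8 μm) at 100 μL/min. Eluents were water and acetonitrile, each with 0.1% formic acid.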
row,SMILES,RP-LC retention time [s]
1,CC(C)(C)C(=O)N1CCC(C(=O)NCc2ccc3c(c2)OCO3)CC1,712
2,CN(C)c1ccc(CNC(=O)Cc2cn(C)c3ncccc23)cc1,704
3,COc1ccc(CNC(=O)C2CCN(c3nnc4cccc(C)n34)CC2)cc1,646
4,Cc1cc(N2CCCC2)n2nc(CN3CCN(c4ccccc4)CC3)nc2n1,600
5,CCN(Cc1ccc(Cl)cc1)Cc1cc(=O)n2ccc(C)cc2n1,634
6,COc1ccc(OC)c(C(O)CN2CCN(c3cccc(C)c3)CC2)c1 (centres undefined),712
7,Cc1nn(Cc2ccc(C(=O)N3CCN(c4ccccn4)CC3)cc2)c(C)c1S(=O)(=O)N(C)C,606
8,COC(=O)COC(=O)c1cn(-c2cccc(OC)c2)c(=O)c2ccccc12,924
9,O=C(c1cc(Cl)ccc1F)N1CCC(c2nc(C3CC3)n[nH]2)CC1,611
10,Cc1ccc(S(=O)(=O)Nc2ccc(Cn3cncn3)cc2)cc1Cl,760
11,Oc1ccc(-c2ccc(F)cc2)cc1CNC1CCCCC1,712
12,CN(C)[C@@H]1CN(C(=O)C2CCCC2)CC[C@@H]1CO,569
13,CCCCC1CCC(C(=O)Nc2nc(-c3ccc4c(c3)NC(=O)CO4)c(C)s2)CC1 (centres undefined),1240
14,Cc1ccc(NC(=O)C2CCCN(c3ncnc4c3nc3n4CCCCC3)C2)c(Br)c1 (centres undefined),930
15,COc1ccc(C2CC(=O)c3c(C)nn(-c4nc5ccccc5[nH]4)c3C2)c(OC)c1 (centres undefined),1020
16,CNS(=O)(=O)c1cc(-c2nnc(-c3ccccc3)o2)ccc1OC,786
17,CC(C)C(=O)NCCc1csc(C2CCCN(C(=O)C3CCC3)C2)n1 (centres undefined),711
18,O=C(CSc1nc2ncccc2[nH]1)N1CCN(c2ccc(F)cc2)CC1,649
19,CCOCCCNC(=O)N1CCN(c2nc3ccccc3n3cccc23)CC1,618
20,CCOc1ccc(NC(=O)c2oc3cc(C)c(Cl)cc3c2C)c2cccnc12,893
21,O=C(c1cnccn1)N1CCN(c2nc(-c3ccc(Cl)cc3)no2)CC1,828
22,CC(=O)N1CCc2ccccc2C1C(=O)NCc1ccc2c(c1)OCO2 (centres undefined),731
23,O=C(NCCCOC(=O)c1ccccc1)c1ccncc1,613

row,SMILES,RP-LC retention time [s]
1,CCOC(=O)C1CCN(Cc2nc3nc(C)cc(N4CCOCC4)n3n2)CC1,576
2,O=C(Nc1cccc(OCc2nnc(-c3ccc(Cl)cc3)o2)c1)C1CCC1,978
3,CCn1cc(CN2CCCCC2c2nncn2Cc2ccccc2)cn1 (centres undefined),575
4,COC(=O)CNC(=O)N1CCCC1c1cccc(F)c1 (centres undefined),701
5,COc1ccc(Cn2nc3c(S(=O)(=O)N4CCc5ccccc5C4)cccn3c2=O)cc1,946
6,O=S(=O)(c1ccc2c(c1)-c1oncc1CO2)N1CCN(c2ccccn2)CC1,647
7,NS(=O)(=O)c1ccc(NC(=O)C2Cc3ccccc3C(=O)O2)cc1 (centres undefined),684
8,O=C(C1CCN(c2ccncc2)CC1)N1CCN(c2ncccn2)CC1,570
9,Nc1nc(Cl)nc2c1ncn2[C@@H]1O[C@H](CO)[C@H](O)C1O (some centres undefined),611
10,CSc1nnc(NC(=O)c2ccccc2Br)s1,737
11,O=C(Nc1cccc(F)c1)c1csc(-c2ccc(N3CCCC3)nc2)n1,772
12,Cc1ccc(NC(=O)Cn2cnc3nc(N4CCC(C(=O)NC5CC5)CC4)sc3c2=O)c(C)c1,678
13,Cc1ccc(CN2CCN(CC(C)C(=O)NCc3ccc(F)cc3F)C(=O)C2=O)cc1 (centres undefined),755
14,CCCN(C(=O)c1cccc(F)c1)c1nc(-c2ccccc2)cs1,1310
15,Cc1nc(N2CCOCC2)c2c(C(=O)Nc3ccc(Br)cc3F)c(C)oc2n1,976
16,CCc1ccc(NC(=O)C2CCN(S(=O)(=O)c3ccc4c(c3)S(=O)(=O)N=CN4)CC2)cc1,806
17,Cc1nc([C@@H]2CN(C(=O)c3noc(C)c3Cn3cccn3)C[C@H]2C(N)=O)n[nH]1,578
18,COCc1nc(N(C)Cc2ccccc2)ncc1C(=O)O,804
19,CCc1nn2c(CNS(=O)(=O)c3cccc(C)c3)c(-c3ccccc3)nc2s1,973
20,CN1c2ccccc2C(=O)N2CCc3c([nH]c4ccccc34)C21 (centres undefined),890
21,CCOc1ccc(NC(=O)c2[nH]c(C)c(S(=O)(=O)N3CCCCC3)c2C)cc1,979
22,Cc1sc(C)c(S(=O)(=O)N2CC=C(c3ccccc3)CC2)c1-c1cc(C(F)(F)F)on1,1300
23,COc1ccc(NC(=O)N2CCN(c3cc(C)nc(N4CCCC4)n3)CC2)c(C)c1,692

row,SMILES,RP-LC retention time [s]
1,O=C(C1=CN(c2ccc(C(F)(F)F)cc2)c2cc(F)ccc2S1(=O)=O)N1CCOCC1,875
2,CN1C(=O)C(CC(=O)NCC2CCCCC2)Sc2ncccc21 (centres undefined),761
3,O=C(Nc1cccc(F)c1)N1CCC(N2CCN(Cc3cccc(F)c3)C(=O)C2=O)CC1,755
4,CCc1noc(NC(C)=O)c1-c1ccc(OC)c(S(=O)(=O)NC2CC2)c1,679
5,CCOc1ccccc1CNC(=O)CN1CCN(Cc2ccccc2F)C1=O,854
6,Cc1ccc2[nH]c3c(c2c1)CCNC31C(=O)Nc2ccccc21 (centres undefined),643
7,O=C(Nc1ccc2c(c1)N(C(=O)c1cccs1)CC2)c1ccccn1,824
8,O=C(COc1ccccc1F)Nc1ccc2c(c1)CCC(=O)N2Cc1ccccc1,860
9,COc1ccc(N2CCN(C(=O)C3CC(=O)N(CCc4ccccc4)C3)CC2)cc1 (centres undefined),729
10,O=C(Cn1cnc2nc3c(cc2c1=O)CCCC3)Nc1cccc2c1CCCC2,808
11,Cc1ccccc1Cn1cc(C(=O)Nc2cccc(Br)c2)ccc1=O,877
12,O=C(Nc1ccc(F)cc1F)C1CC(=O)N(CCc2c[nH]c3ccc(F)cc23)C1 (centres undefined),784
13,Cc1ccccc1Nc1c(-c2cccc(Br)c2)nc2cccc(C)n12,833
14,Cc1cccc(N2CCN(c3cc(C(=O)O)c4cc(NC(=O)C(C)(C)C)ccc4n3)CC2)c1C,774
15,O=C(NCc1cccs1)C(=O)NCC1(c2cccs2)CC1,860
16,Cc1nc(-c2csc(S(=O)(=O)N3CCCC(C(=O)Nc4ccc(Cl)cc4F)C3)c2)no1 (centres undefined),1050
17,CCc1ccc(-n2ncc3c(=O)n(Cc4nc(-c5ccc(OC)cc5)no4)cnc32)cc1,1120
18,Cc1cc(C(=O)N2c3ccccc3CC2c2nnc(C(C)C)o2)nn1C (centres undefined),829
19,CCOC(=O)C1CCN(C(=O)CN2C(=O)COc3ccc(C(=O)N(C)C)cc32)CC1,648
20,CC(C)NC(=O)N1CCCCCC1c1nc(C2CC2)no1 (centres undefined),802
21,CCOc1ccccc1-n1ccn(Cc2nc(-c3ccc(OC)cc3)no2)c(=O)c1=O,846
22,O=C(Nc1cccc2ccc(-n3ccnc3)nc12)C1COc2ccccc2O1 (centres undefined),674
23,COc1ccc(NC(=O)Cn2cnc3nc4c(cc3c2=O)CCCC4)cc1,695

row,SMILES,RP-LC retention time [s]
1,Cc1ccc(CNC(=O)C2(C)CCN(C(=O)Nc3ccc(C)c(Cl)c3)CC2)cc1,972
2,Cc1ccc(NS(=O)(=O)c2c(C)sc(C)c2-c2cc(C(F)(F)F)on2)cc1,1190
3,CC1CCN(C(=O)C2CCc3sc(C(=O)N4CCCC4)cc3C2)CC1 (centres undefined),843
4,COc1cccc(CN2C[C@@H]3C(=O)N(CCCN4CCCC4=O)C(=O)[C@@H]3C2)c1,598
5,Cc1ccc2c(c1)OCC(=O)N2Cc1nc(-c2cccc(C(F)(F)F)c2)no1,919
6,Cc1ccc(Cn2c(=O)n(CCNC(=O)C(C)C)c3ncccc32)cc1,769
7,Cc1csc(-c2cc(S(=O)(=O)NCCc3ccc(S(N)(=O)=O)cc3)c(C)n2C)n1,769
8,COc1ccccc1-n1ccn(Cc2nc(-c3ccc(C(C)(C)C)cc3)no2)c(=O)c1=O,1020
9,COc1ncccc1CNC(=O)c1cnn2cccnc12,638
10,O=C(NC1CCCCC1)[C@@H]1C[C@@H](O)CN1C1CCN(C(=O)c2ccc(Cn3ccnc3)o2)CC1,551
11,Cc1ccc(C(=O)NCc2nn(C)c3ccccc23)cc1,810
12,O=C(CN1C(=O)C(C(=O)N2CCCC2)Sc2ccccc21)NC1CCN(Cc2ccccc2)CC1 (centres undefined),663
13,O=C(Cn1nc(S(=O)(=O)c2cccc(F)c2)ccc1=O)N1CCN(c2ccccc2)CC1,802
14,CCCn1ccc2sc(C)c(C(=O)N3CCN(c4ccccc4)CC3)c2c1=O,849
15,Cc1ccc(N2CCC(NC(=O)c3cc(F)cc(F)c3)C2=O)cc1 (centres undefined),858
16,O=C(Cn1cccc1-c1nc(-c2ccc(Cl)cc2)cs1)NCc1ccco1,1080
17,CCCN1CCN(CCCNC(=O)C2=Cc3cc(Br)ccc3OC2)CC1,610
18,COC(=O)C1=CN(c2cc(Cl)c(OC)cc2OC)c2ccccc2S1(=O)=O,903
19,Cc1ccccc1-c1noc(C2CCCN2C(=O)Nc2cccc(Cl)c2)n1 (centres undefined),1080
20,Cc1cccc2c(=O)n(C3CCN(C(=O)Nc4cccc(C(F)(F)F)c4)CC3)cnc12,952
